Columns and labels:
[1] = tested on: ΔmvfR mutant constitutively expressing the pqsABCD genes; assay: HAQ production in ΔmvfR mutant constitutively expressing pqsABCD (LC/MS); format: cell-based, Pseudomonas aeruginosa; conditions: 100 μM inhibitor
From the text: However, since these compounds diminish or abolish P. aeruginosa HAQ production, it is possible that they target either the MvfR protein itself or enzymes in the pqs operon that are required for HAQ synthesis. To further understand the target(s) of these compounds, a ΔmvfR mutant constitutively expressing the pqsABCD genes was used. This strain is capable of synthesizing HHQ, HQNO, PQS and DHQ independently of MvfR. […] Since PqsA and PqsD are necessary and sufficient for DHQ production, it is possible that these inhibitors target either PqsB or PqsC enzymes, which are required for HHQ and PQS production.

[2] = tested on: 4-hydroxy-2-alkylquinoline (HAQ) levels, P. aeruginosa PA14 (MvfR regulon); format: cell-based, Pseudomonas aeruginosa

| SMILES | HAQ levels compared to the solvent control [1] | activity (impacts on HAQ and pyocyanin levels), structure-activity comparison ([2]; tested at 10 μM) | other results |
| --- | --- | --- | --- |
| COc1ccccc1NC(=O)CSc1nc2ccc([N+](=O)[O-])cc2[nH]1 [Compound M53, N-(2-methoxyphenyl)-2-((6-nitro-1H-benzo[d]imidazol-2-yl)thio)acetamide] | do not significantly alter HAQ levels | not very active | – |
| O=C(CSc1nc2ccccc2[nH]1)Nc1ccc([N+](=O)[O-])cc1 [Compound M45, 2-((1H-benzo[d]imidazol-2-yl)thio)-N-(4-nitrophenyl)acetamide] | – | did not improve the activity | – |
| CC(=O)Nc1ccc2nc(SCC(=O)Nc3ccc(I)cc3)[nH]c2c1 [Compound M65, 2-((6-acetamido-1H-benzo[d]imidazol-2-yl)thio)-N-(4-iodophenyl)acetamide] | – | inactive | – |
| O=C(CSc1nc2ccc([N+](=O)[O-])cc2[nH]1)Nc1ccc(OC(F)(F)F)cc1 [Compound M58, 2-((6-nitro-1H-benzo[d]imidazol-2-yl)thio)-N-(4-(trifluoromethoxy)phenyl)acetamide] | intermediate phenotype | most active | – |
| COc1ccc2nc(SCC(=O)Nc3ccc(Cl)c(Cl)c3)[nH]c2c1 [Compound M24, N-(3,4-dichlorophenyl)-2-((6-methoxy-1H-benzo[d]imidazol-2-yl)thio)acetamide] | – | decreased the activity | – |
| CC(C)c1ccc(NC(=O)CSc2nc3ccccc3[nH]2)cc1 [Compound M49, 2-((1H-benzo[d]imidazol-2-yl)thio)-N-(4-isopropylphenyl)acetamide] | – | more active compound | – |
| O=C(CSc1nc2ccc([N+](=O)[O-])cc2[nH]1)Nc1ccc(Cl)cc1 [Compound M51, N-(4-chlorophenyl)-2-((6-nitro-1H-benzo[d]imidazol-2-yl)thio)acetamide] | intermediate phenotype | most active | – |
| O=C(CSc1nc2ccccc2[nH]1)Nc1ccc(Cl)c(Cl)c1 [Compound M22, 2-((1H-benzo[d]imidazol-2-yl)thio)-N-(3,4-dichlorophenyl)acetamide] | – | decreased the activity as compared to M26 | – |
| O=C(CSc1nc2ccc(NC(=O)C(F)(F)F)cc2[nH]1)Nc1ccc(I)cc1 [Compound M63, 2,2,2-trifluoro-N-(2-((2-((4-iodophenyl)amino)-2-oxoethyl)thio)-1H-benzo[d]imidazol-6-yl)acetamide] | – | inactive | – |
| COc1ccccc1NC(=O)CSc1nc2ccccc2[nH]1 [Compound M46, 2-((1H-benzo[d]imidazol-2-yl)thio)-N-(2-methoxyphenyl)acetamide] | – | did not improve the activity | – |
| O=C(CSc1nc2ccccc2[nH]1)Nc1ccc(Br)cc1 [Compound M55, 2-((1H-benzo[d]imidazol-2-yl)thio)-N-(4-bromophenyl)acetamide] | – | active compounds | DHQ level [1]: increased; HHQ and HQNO levels [1]: reduced |
| COc1ccc(NC(=O)CSc2nc3ccc([N+](=O)[O-])cc3[nH]2)cc1 [Compound M61, N-(4-methoxyphenyl)-2-((6-nitro-1H-benzo[d]imidazol-2-yl)thio)acetamide] | do not significantly alter HAQ levels | most active | – |
| CSc1cccc(NC(=O)CSc2nc3ccccc3[nH]2)c1 [Compound M4, 2-((1H-benzo[d]imidazol-2-yl)thio)-N-(3-(methylthio)phenyl)acetamide] | – | – | DHQ level [1]: increased; HHQ and HQNO levels [1]: reduced; concentration at which compound was effective (decreased HAQ levels), as low as ([2]; among the seventeen HAQ-lowering hits): 10 µM; HAQ production / HAQ inhibition ([2]; tested at 10 μM): improved HAQ inhibition |

Source: patent publication US8877940B2, “Antibiotic tolerance inhibitors” (Institut National de la Recherche Scientifique, priority 2011, dated 2014)
